Assay results taken from US20100086513A1, “Method for Effecting Antimicrobial Activity Using Polyamine Analogues” (priority 2008, published 2010).
Converted amounts (≈) assume the structure as drawn.

Columns and labels:
Y. pestis KIM6+ [1] = format: cell-based, Yersinia pestis
[2] = system: E. coli K12 cells + pBR322; format: cell-based, Escherichia coli
Y. pestis KIM6+ [3] = format: cell-based, Yersinia pestis; remark: listed apart in the source
E. coli K12 = format: cell-based, Escherichia coli

N=C(NCCCNCCCCCCCNCCCNC(=N)NC(=N)NCCC(c1ccccc1)c1ccccc1)NC(=N)NCCC(c1ccccc1)c1ccccc1 [XBI-54-13B]
MIC (Y. pestis KIM6+ [1]): 1.56 µg/mL (≈ 1.95 µM)
release of β-lactamase (Nitrocefin absorption at 486 nm) [2]: quickly causes a release of β-lactamase

CC[C@H](C)[C@H](NC(=O)CN)C(=O)NCC(=O)N[C@@H](C)C(=O)N[C@H](C(=O)N[C@@H](CC(C)C)C(=O)N[C@@H](CCCCN)C(=O)N[C@H](C(=O)N[C@@H](CC(C)C)C(=O)N[C@H](C(=O)N[C@H](C(=O)NCC(=O)N[C@@H](CC(C)C)C(=O)N1CCC[C@H]1C(=O)N[C@@H](C)C(=O)N[C@@H](CC(C)C)C(=O)N[C@H](C(=O)N[C@@H](CO)C(=O)N[C@@H](Cc1c[nH]c2ccccc12)C(=O)N[C@H](C(=O)N[C@@H](CCCCN)C(=O)N[C@@H](CCCNC(=N)N)C(=O)N[C@@H](CCCCN)C(=O)N[C@@H](CCCNC(=N)N)C(=O)N[C@@H](CCC(N)=O)C(=O)N[C@@H](CCC(N)=O)C(N)=O)[C@@H](C)CC)[C@@H](C)CC)[C@@H](C)O)[C@@H](C)O)C(C)C)C(C)C [mellitin]
release of β-lactamase (Nitrocefin absorption at 486 nm) [2]: a reaction of Nitrocefin to β-lactamase occurs almost immediately

NCCCCN [putrescine]
uptake of [14C] putrescine (Y. pestis KIM6+ [3]): ability to transport significant amounts
uptake of [14C] putrescine (E. coli K12): ability to transport significant amounts

NCCCCNCCCN [spermidine]
transport of [14C] spermidine (Y. pestis KIM6+ [3]): effectively unable to transport
transport of [14C] spermidine (E. coli K12): able to transport a significant amount
